Experimental data reported in patent US5034391A, “Piperazinylalkyl-3(2H)-pyridazinones and the use thereof as agents lowering blood pressure” (CL Pharma Aktiengesellschaft, priority 1988, dated 1991).
Where “and” joins values, the source holds several entries; their conditions need not be identical. Identical values can stand only once.

The molecules below were run against T1, alpha1 adrenoceptors (Rattus norvegicus, UniProt P15823) (assay: Affinity for alpha1 adrenoceptors: displacement of tritiated prazosin on rat cardiac membranes). Settings: Ki from IC50 by Cheng and Prusoff, read-out: Inhibition constants at alpha-1-adrenoceptor (Ki).
T1 construct: from tissue; host or cells: rat cardiac membranes
T1 sequence (P15823 1-515): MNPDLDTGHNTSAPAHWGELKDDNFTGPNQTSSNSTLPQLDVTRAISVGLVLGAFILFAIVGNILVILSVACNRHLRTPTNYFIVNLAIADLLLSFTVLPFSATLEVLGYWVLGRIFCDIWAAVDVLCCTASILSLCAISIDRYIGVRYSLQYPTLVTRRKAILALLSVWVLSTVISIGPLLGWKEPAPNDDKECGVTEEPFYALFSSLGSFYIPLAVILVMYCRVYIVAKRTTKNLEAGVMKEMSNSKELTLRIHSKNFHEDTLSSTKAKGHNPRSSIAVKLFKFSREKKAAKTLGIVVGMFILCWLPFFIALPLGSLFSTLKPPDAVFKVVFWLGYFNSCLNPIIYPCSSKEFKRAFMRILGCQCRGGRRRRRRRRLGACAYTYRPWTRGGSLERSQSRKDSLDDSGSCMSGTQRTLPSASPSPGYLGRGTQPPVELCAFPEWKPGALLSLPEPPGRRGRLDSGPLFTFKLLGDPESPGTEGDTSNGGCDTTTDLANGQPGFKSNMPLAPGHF
Format: binding
Experimental: The affinity of compounds of the general formula I for alpha1 adrenoceptors was established using the method described by R. S. Williams, D. F. Dukes and […] in J. Cardiovasc. Pharmacol. 3, 522-531 (1981). In this method the competitive displacement of tritiated prazosin (2-(4-(2-furoyl)-1-piperazinyl)-4-amino-6,7-dimethoxy-quinazoline) on rat-cardiac membranes by the test substances is measured, and the IC50 (50% inhibition concentration) is determined as that concentration which brings about a 50% inhibition of the specific binding of tritiated prazosin to the alpha1 adrenoceptors in rat cardiac membranes.
The concentration-independent inhibitor constants K1 -alpha1 were determined from the IC50 values as stated by Y. Cheng and H. W.Prusoff in Biochem. Pharmacol. 22, 3099-3108 (1973).

Molecule | Ki
2-Methyl-4-((2-(4-(2-fluorophenyl)piperazinyl-1)ethyl) amino)-3(2H)-pyridazinone | 89.4 nM
CCOc1cc(C)ccc1N1CCN(CCCNc2cnn(C)c(=O)c2)CC1 [1-Methyl-5-((3-(4-(2-ethoxy-4-methylphenyl)piperazinyl-1)propyl)amino)-3(2H)-pyridazinone] | 23.3 nM
COc1ccccc1N1CCN(CCNc2ccnn(CCN(C)C)c2=O)CC1 [2-(2-Dimethylaminoethyl)-4-((2-(4-(2-methoxyphenyl)piperazinyl-1)ethyl)amino)-3(2H)-pyridazinone] | 437 nM
COc1ccccc1N1CCN(CCNc2cnn(CCN(C)C)c(=O)c2)CC1 [2-(2-Dimethylaminoethyl)-5-((2-(4-(2-methoxyphenyl)piperazinyl-1)ethyl)amino)-3(2H)-pyridazinone] | 229 nM
COc1ccccc1N1CCN(CCNc2c(Cl)cnn(CCN(C)C)c2=O)CC1 [2-(2-Dimethylaminoethyl)-5-chloro-4-((2-(4-(2-methoxyphenyl)piperazinyl-1)ethyl)amino)-3(2H)-pyridazinone] | 15.8 nM
CCOc1ccccc1N1CCN(CCNc2ccnn(C)c2=O)CC1 [2-Methyl-4-((2-(4-(2-ethoxyphenyl)piperazinyl-1)ethyl)amino)-3(2H)-pyridazinone] | 13.6 nM
Cn1nccc(NCCN2CCN(c3ccccc3F)CC2)c1=O [2-Methyl-4-((2-(4-(2-fluorophenyl)piperazinyl-1)ethyl)amino) -3(2H)-pyridazinone] | 21.4 nM
COc1ccccc1N1CCN(CCNc2ccnn(C)c2=O)CC1 [2-Methyl-4-((2-(4-(2-methoxyphenyl)piperazinyl-1)ethyl)amino)-3(2H)-pyridazinone] | 15.7 nM
CCOc1cc(C)ccc1N1CCN(CCCNc2ccnn(C)c2=O)CC1 [2-Methyl-4-((3-(4-(2-ethoxy-4-methylphenyl)piperazinyl-1)propyl)amino)-3(2H)-pyridazinone] | 13.6 nM
Cn1nccc(NCCCN2CCN(c3ccccc3F)CC2)c1=O [2-Methyl-4-((3-(4-(2-fluorophenyl)piperazinyl-1)propyl)amino)-3(2H)-pyridazinone] | 30.2 nM
Cc1ccc(N2CCN(CCCNc3ccnn(C)c3=O)CC2)c(O)c1 [2-Methyl-4-((3-(4-(2-hydroxy-4-methylphenyl)piperazinyl-1)propyl)amino)-3(2H)-pyridazinone] | 20.9 nM
COc1ccccc1N1CCN(CCCNc2ccnn(C)c2=O)CC1 [2-Methyl-4-((3-(4-(2-methoxyphenyl)piperazinyl-1)propyl)amino-3(2H)-pyridazinone] | 24.7 nM and 40.5 nM
Cc1ccccc1N1CCN(CCCNc2cnn(C)c(=O)c2)CC1 [2-Methyl-4-((3-(4-(2-methylphenyl)piperazinyl-1)propyl)amino)-3(2H)-pyridazinone] | 49.3 nM
COc1ccccc1N1CCN(CCCCNc2ccnn(C)c2=O)CC1 [2-Methyl-4-((4-(4-(2-methoxyphenyl)piperazinyl-1)butyl)amino)-3(2H)-pyridazinone] | 11.8 nM
Cn1ncc(NCCN2CCN(c3ccccc3O)CC2)c(Cl)c1=O [2-Methyl-4-chloro-5-((2-(4-(2-hydroxyphenyl)piperazinyl-1)ethyl)amino)-3(2H)-pyridazinone] | 15.4 nM
Cn1ncc(NCCCN2CCN(c3ccccc3F)CC2)c(Cl)c1=O [2-Methyl-4-chloro-5-((3-(4-(2-fluorophenyl)piperazinyl-1)propyl)amino)-3(2H)-pyridazinone] | 32.8 nM
Cc1ccccc1N1CCN(CCCNc2cnn(C)c(=O)c2Cl)CC1 [2-Methyl-4-chloro-5-((3-(4-(2-methylphenyl)piperazinyl-1)propyl)amino)-3(2H)-pyridazinone] | 31.4 nM
Cc1ccc(N2CCN(CCNc3cnn(C)c(=O)c3Cl)CC2)c(O)c1 [2-Methyl-4-chloro-5-((4-(2-hydroxy-4-methylphenyl)piperazinyl-1)ethyl)amino)-3(2H)-pyridazinone] | 20.8 nM
CCN(CCN1CCN(c2ccccc2OC)CC1)c1cnn(C)c(=O)c1Cl [2-Methyl-4-chloro-5-(ethyl-(2-(4-(2-methoxyphenyl)piperazinyl-1)ethyl)amino)-3(2H)-pyridazinone] | 37.1 nM
CCOc1ccccc1N1CCN(CCNc2cnn(C)c(=O)c2)CC1 [2-Methyl-5-((2-(4-(2-ethoxyphenyl)piperazinyl-1)ethyl)amino)-3(2H)-pyridazinone] | 103 nM
Cn1ncc(NCCN2CCN(c3ccccc3O)CC2)cc1=O [2-Methyl-5-((2-(4-(2-hydroxyphenyl)piperazinyl-1)ethyl)amino)-3(2H)-pyridazinone] | 65.8 nM
COc1ccccc1N1CCN(CCCN(C)c2c(Cl)cnn(C)c2=O)CC1 [2-Methyl-5-chloro-4-(methyl-(3-(4-(2-methoxyphenyl)piperazinyl-1)propyl)amino)-3(2H)-pyridazinone] | 12.9 nM
COc1ccccc1N1CCN(CCNc2cnn(-c3ccccc3)c(=O)c2)CC1 [2-Phenyl-5-((2-(4-(2-methoxyphenyl)piperazinyl-1)ethyl)amino)-3(2H)-pyridazinone] | 61.6 nM
COc1ccccc1N1CCN(CCNc2ccnn(C(C)(C)C)c2=O)CC1 [2-t-Butyl-4-((2-(4-(2-methoxyphenyl)piperazinyl-1)ethyl)amino)-3(2H)-pyridazinone] | 60.8 nM
O=c1[nH]nccc1NCCN1CCN(c2ccccc2O)CC1 [4((2-(4-(2-Hydroxyphenyl)piperazinyl-1)ethyl)amino)-3(2H)-pyridazinone] | 84 nM

The next lines start with the values.

Ki | Molecule
2 nM | Cn1ncc(NCCN2CCN(c3ccccc3OCc3ccccc3)CC2)c(Cl)c1=O [2-Methyl-4-chloro-5-((2-(4-(2-benzyloxyphenyl)piperazinyl-1)ethyl)amino)-3(2H)-pyridazinone]
6.27 nM | Cc1ccccc1N1CCN(CCNc2cnn(C)c(=O)c2Cl)CC1 [2-Methyl-4-chloro-5-((2-(4-(2-methylphenyl)piperazinyl-1)ethyl)amino)-3(2H)-pyridazinone]
3.78 nM | CCOc1cc(C)ccc1N1CCN(CCCNc2cnn(C)c(=O)c2Cl)CC1 [2-Methyl-4-chloro-5-((3-(4-(2-ethoxy-4-methylphenyl)piperazinyl-1)propyl)yamino)-3(2H)-pyridazinone]
4.33 nM | Cc1ccc(N2CCN(CCCNc3cnn(C)c(=O)c3Cl)CC2)c(O)c1 [2-Methyl-4-chloro-5-((3-(4-(2-hydroxy-4-methylphenyl)piperazinyl-1)propyl)amino)-3(2H)-pyridazinone]
6.05 nM | COc1ccccc1N1CCN(CCCCNc2cnn(C)c(=O)c2Cl)CC1 [2-Methyl-4-chloro-5-((4-(4-(2-methoxyphenyl)-1-piperazinyl)butyl)amino)-3(2H)-pyridazinone]
3.55 nM | COc1ccccc1N1CCN(CCCN(C)c2cnn(C)c(=O)c2Cl)CC1 [2-Methyl-4-chloro-5-(methyl-(3-(4-(2-methoxyphenyl)piperazinyl-1)propyl)amino)-3(2H)-pyridazinone]
5.38 nM | COc1ccccc1N1CCN(CCCCNc2cnn(C)c(=O)c2)CC1 [2-Methyl-5-((4-(4-(2-methoxyphenyl)piperazinyl-1)butyl)amino)-3(2H)-pyridazinone]
2.54 nM | Cn1ncc(Cl)c(NCCN2CCN(c3ccccc3OCc3ccccc3)CC2)c1=O [2-Methyl-5-chloro-4-((2-(4-(2-benzyloxyphenyl)piperazinyl-1)ethyl)amino)-3(2H)-pyridazinone]
1.21 nM | Cc1ccccc1N1CCN(CCNc2c(Cl)cnn(C)c2=O)CC1 [2-Methyl-5-chloro-4-((2-(4-(2-methylphenyl)piperazinyl-1)ethyl)amino)-3(2H)-pyridazinone]
4.99 nM | CCOc1cc(C)ccc1N1CCN(CCCNc2c(Cl)cnn(C)c2=O)CC1 [2-Methyl-5-chloro-4-((3-(4-(2-ethoxy-4-methylphenyl)piperazinyl-1)propyl)amino)-3(2H)-pyridazinone]
4.89 nM | Cn1ncc(Cl)c(NCCCN2CCN(c3ccccc3F)CC2)c1=O [2-Methyl-5-chloro-4-((3-(4-(2-fluorophenyl)piperazinyl-1)propyl)amino)-3(2H)-pyridazinone]
5.34 nM | Cc1ccc(N2CCN(CCCNc3c(Cl)cnn(C)c3=O)CC2)c(O)c1 [2-Methyl-5-chloro-4-((3-(4-(2-hydroxy-4-methylphenyl)piperazinyl-1)propyl)amino)-3(2H)-pyridazinone]
4.45 nM | Cc1ccccc1N1CCN(CCCNc2c(Cl)cnn(C)c2=O)CC1 [2-Methyl-5-chloro-4-((3-(4-(2-methylphenyl)piperazinyl-1)piperazinyl-1)propyl)amino)-3(2H)-pyridazinone]
6.5 nM | CCOc1ccccc1N1CCN(CCCNc2cc(Cl)nn(C)c2=O)CC1 [2-Methyl-6-chloro-(3-(4-(4-(2-ethoxyphenyl)piperazinyl-1)propyl)amino)-3(2H)-pyridazinone]
2.15 nM | COc1ccccc1N1CCN(CCCCNc2c(Cl)cnn(C)c2=O)CC1 [2-methyl-5-chloro-4-((4-(4-(2-methoxyphenyl)-1-piperazinyl)butyl)amino)-3(2H)-pyridazinone]
